Experimental data from the supplement of paper PMC10627819.

System: S. pneumoniae D39V
Assay: fitness (endpoint OD595 vs no drug) (fraction); higher = more growth
How it was run: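 Each well of a 384-well plate received 30 µl of culture at OD595 0.01, or 55 µl for S. pneumoniae. TSB, LB Lennox or CY served as media at 37 °C. OD595 was taken every 30 min for 14 h and corrected by subtracting the first reading. Fitness is the optical density at stationary-phase entry divided by the robust mean of no-drug controls, capped at 1.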

SMILES: CCC[C@@H]1C[C@@H](C(=O)N[C@@H]([C@H]2O[C@H](SC)[C@H](O)[C@@H](O)[C@H]2O)[C@H](C)Cl)N(C)C1 [Clindamycin] + CC[C@H]1OC(=O)[C@H](C)[C@@H](O[C@H]2C[C@@](C)(OC)[C@@H](O)[C@H](C)O2)[C@H](C)[C@@H](O[C@@H]2O[C@H](C)C[C@H](N(C)C)[C@H]2O)[C@](C)(OC)C[C@@H](C)C(=O)[C@H](C)[C@@H](O)[C@]1(C)O [Clarithromycin]
- fitness (first compound 0.0125 µg/mL, partner 0.0625 µg/mL): 0.563
- fitness (first compound 0.0125 µg/mL, partner 0.125 µg/mL): 0.409
- fitness (first compound 0.0125 µg/mL, partner 0.25 µg/mL): 0.181
- fitness (first compound 0.015 µg/mL, partner 0.007812 µg/mL, one replicate): 0.728
- fitness (first compound 0.015 µg/mL, partner 0.01562 µg/mL, one replicate): 0.746
- fitness (first compound 0.015 µg/mL, partner 0.03125 µg/mL, one replicate): 0.635
- fitness (first compound 0.015 µg/mL, partner 0.07 µg/mL): 0.136
- fitness (first compound 0.015 µg/mL, partner 0.14 µg/mL): 0.087
- fitness (first compound 0.015 µg/mL, partner 0.28 µg/mL): 0.0757
- fitness (first compound 0.025 µg/mL, partner 0.0625 µg/mL): 0.422
- fitness (first compound 0.025 µg/mL, partner 0.125 µg/mL): 0.338
- fitness (first compound 0.025 µg/mL, partner 0.25 µg/mL): 0.121
- fitness (first compound 0.03 µg/mL, partner 0.007812 µg/mL, one replicate): 0.578
- fitness (first compound 0.03 µg/mL, partner 0.01562 µg/mL, one replicate): 0.637
- fitness (first compound 0.03 µg/mL, partner 0.03125 µg/mL, one replicate): 0.557
- fitness (first compound 0.03 µg/mL, partner 0.07 µg/mL): 0.11
- fitness (first compound 0.03 µg/mL, partner 0.14 µg/mL): 0.081
- fitness (first compound 0.03 µg/mL, partner 0.28 µg/mL): 0.0789
- fitness (first compound 0.05 µg/mL, partner 0.0625 µg/mL): 0.164
- fitness (first compound 0.05 µg/mL, partner 0.125 µg/mL): 0.109
- fitness (first compound 0.05 µg/mL, partner 0.25 µg/mL): 0.0631
- fitness (first compound 0.06 µg/mL, partner 0.007812 µg/mL, one replicate): 0.283
- fitness (first compound 0.06 µg/mL, partner 0.01562 µg/mL, one replicate): 0.371
- fitness (first compound 0.06 µg/mL, partner 0.03125 µg/mL, one replicate): 0.175
- fitness (first compound 0.06 µg/mL, partner 0.07 µg/mL): 0.0799
- fitness (first compound 0.06 µg/mL, partner 0.14 µg/mL): 0.115
- fitness (first compound 0.06 µg/mL, partner 0.28 µg/mL): 0.0946

SMILES: C[C@@H](O)[C@H]1C(=O)N2C(C(=O)O)=C(SCCNC=N)C[C@H]12 [Imipenem] + CC1=C(C(=O)O)N2C(=O)[C@@H](NC(=O)[C@H](N)c3ccccc3)[C@H]2SC1 [Cephalexin]
- fitness (first compound 0.005 µg/mL, partner 0.125 µg/mL, one replicate): 0.899
- fitness (first compound 0.005 µg/mL, partner 0.25 µg/mL, one replicate): 0.874
- fitness (first compound 0.005 µg/mL, partner 0.5 µg/mL, one replicate): 0.943
- fitness (first compound 0.0065 µg/mL, partner 1 µg/mL): 0.278
- fitness (first compound 0.0065 µg/mL, partner 2 µg/mL): 0.0001
- fitness (first compound 0.0065 µg/mL, partner 4 µg/mL): 0.0361
- fitness (first compound 0.01 µg/mL, partner 0.125 µg/mL, one replicate): 0.909
- fitness (first compound 0.01 µg/mL, partner 0.25 µg/mL, one replicate): 0.946
- fitness (first compound 0.01 µg/mL, partner 0.5 µg/mL, one replicate): 0.978
- fitness (first compound 0.013 µg/mL, partner 1 µg/mL): 0.4
- fitness (first compound 0.013 µg/mL, partner 2 µg/mL): 0.0222
- fitness (first compound 0.013 µg/mL, partner 4 µg/mL): 0.0148
- fitness (first compound 0.02 µg/mL, partner 0.125 µg/mL, one replicate): 0.942
- fitness (first compound 0.02 µg/mL, partner 0.25 µg/mL, one replicate): 0.938
- fitness (first compound 0.02 µg/mL, partner 0.5 µg/mL, one replicate): 0.95
- fitness (first compound 0.026 µg/mL, partner 1 µg/mL): 0.176
- fitness (first compound 0.026 µg/mL, partner 2 µg/mL): 0.0128
- fitness (first compound 0.026 µg/mL, partner 4 µg/mL): 0.0072

SMILES: C[C@@H](O)[C@H]1C(=O)N2C(C(=O)O)=C(SCCNC=N)C[C@H]12 [Imipenem] + CO[C@@]12[C@H](COC(N)=O)C3=C(C(=O)C(C)=C(N)C3=O)N1C[C@@H]1N[C@@H]12 [Mitomycin C]
- fitness (first compound 0.005 µg/mL, partner 0.001075 µg/mL): 0.906
- fitness (first compound 0.005 µg/mL, partner 0.00215 µg/mL): 0.923
- fitness (first compound 0.005 µg/mL, partner 0.0043 µg/mL): 0.815
- fitness (first compound 0.0065 µg/mL, partner 0.002 µg/mL): 0.797
- fitness (first compound 0.0065 µg/mL, partner 0.004 µg/mL): 0.657
- fitness (first compound 0.01 µg/mL, partner 0.001075 µg/mL): 0.921
- fitness (first compound 0.01 µg/mL, partner 0.00215 µg/mL): 0.876
- fitness (first compound 0.01 µg/mL, partner 0.0043 µg/mL): 0.804
- fitness (first compound 0.013 µg/mL, partner 0.002 µg/mL): 0.583
- fitness (first compound 0.013 µg/mL, partner 0.004 µg/mL): 0.731
- fitness (first compound 0.013 µg/mL, partner 0.008 µg/mL): 0.56
- fitness (first compound 0.02 µg/mL, partner 0.001075 µg/mL): 0.937
- fitness (first compound 0.02 µg/mL, partner 0.00215 µg/mL): 0.919
- fitness (first compound 0.02 µg/mL, partner 0.0043 µg/mL): 0.78
- fitness (first compound 0.026 µg/mL, partner 0.002 µg/mL): 0.737
- fitness (first compound 0.026 µg/mL, partner 0.004 µg/mL): 0.668
- fitness (first compound 0.026 µg/mL, partner 0.008 µg/mL): 0.417

SMILES: O=C1CN(/N=C/c2ccc([N+](=O)[O-])o2)C(=O)N1 [Nitrofurantoin] + CCC(C)C1C(=O)NC(=C)C(=O)NC(C(=O)NC(CSCC(C(=O)N1)NC(=O)/C(=C/C)/NC(=O)C(C(C)CC)N)C(=O)NC2C(SCC(NC(=O)CNC(=O)C3CCCN3C2=O)C(=O)NC(CCCCN)C(=O)NC4C(SCC(NC(=O)CNC(=O)C(NC(=O)C(NC(=O)C(NC(=O)CNC4=O)C)CC(C)C)CCSC)C(=O)NC(CC(=O)N)C(=O)NC(CCSC)C(=O)NC(CCCCN)C(=O)NC5C(SCC6C(=O)NC(C(=O)NC(CSC(C(C(=O)N6)NC(=O)C(NC5=O)C)C)C(=O)NC(CO)C(=O)NC(C(C)CC)C(=O)NC(CC7=CN=CN7)C(=O)NC(C(C)C)C(=O)NC(=C)C(=O)NC(CCCCN)C(=O)O)CC8=CN=CN8)C)C)C)CC(C)C [Nisin]
- fitness (first compound 1.285 µg/mL, partner 1.6 µg/mL, main component drawn): 0.0025
- fitness (first compound 1.285 µg/mL, partner 3.2 µg/mL, main component drawn): 0.0467
- fitness (first compound 1.285 µg/mL, partner 6.4 µg/mL, main component drawn): 0.0134
- fitness (first compound 2 µg/mL, partner 0.4275 µg/mL, main component drawn): 0.988
- fitness (first compound 2 µg/mL, partner 0.855 µg/mL, main component drawn): 0.991
- fitness (first compound 2 µg/mL, partner 1.71 µg/mL, main component drawn): 0.075
- fitness (first compound 2.57 µg/mL, partner 1.6 µg/mL, main component drawn): 0.0197
- fitness (first compound 2.57 µg/mL, partner 3.2 µg/mL, main component drawn): 0.0583
- fitness (first compound 2.57 µg/mL, partner 6.4 µg/mL, main component drawn): 0.0339
- fitness (first compound 4 µg/mL, partner 0.4275 µg/mL, main component drawn): 0.971
- fitness (first compound 4 µg/mL, partner 0.855 µg/mL, main component drawn): 0.993
- fitness (first compound 4 µg/mL, partner 1.71 µg/mL, main component drawn): 0.0559
- fitness (first compound 5.14 µg/mL, partner 1.6 µg/mL, one replicate, main component drawn): 0.0172
- fitness (first compound 5.14 µg/mL, partner 3.2 µg/mL, one replicate, main component drawn): 0.0456
- fitness (first compound 5.14 µg/mL, partner 6.4 µg/mL, one replicate, main component drawn): 0.0152
- fitness (first compound 8 µg/mL, partner 0.4275 µg/mL, main component drawn): 0.85
- fitness (first compound 8 µg/mL, partner 1.71 µg/mL, main component drawn): 0.0537

SMILES: C/C(=C\C(=O)OCCCCCCCCC(=O)O)C[C@@H]1OC[C@H](C[C@@H]2O[C@H]2[C@@H](C)[C@H](C)O)[C@@H](O)[C@H]1O [Pseudomonic acid] + CCC(C)C1C(=O)NC(=C)C(=O)NC(C(=O)NC(CSCC(C(=O)N1)NC(=O)/C(=C/C)/NC(=O)C(C(C)CC)N)C(=O)NC2C(SCC(NC(=O)CNC(=O)C3CCCN3C2=O)C(=O)NC(CCCCN)C(=O)NC4C(SCC(NC(=O)CNC(=O)C(NC(=O)C(NC(=O)C(NC(=O)CNC4=O)C)CC(C)C)CCSC)C(=O)NC(CC(=O)N)C(=O)NC(CCSC)C(=O)NC(CCCCN)C(=O)NC5C(SCC6C(=O)NC(C(=O)NC(CSC(C(C(=O)N6)NC(=O)C(NC5=O)C)C)C(=O)NC(CO)C(=O)NC(C(C)CC)C(=O)NC(CC7=CN=CN7)C(=O)NC(C(C)C)C(=O)NC(=C)C(=O)NC(CCCCN)C(=O)O)CC8=CN=CN8)C)C)C)CC(C)C [Nisin]
- fitness (first compound 0.03 µg/mL, partner 0.4275 µg/mL, main component drawn): 0.935
- fitness (first compound 0.03 µg/mL, partner 0.855 µg/mL, main component drawn): 0.928
- fitness (first compound 0.03 µg/mL, partner 1.71 µg/mL, main component drawn): 0.0945
- fitness (first compound 0.03 µg/mL, partner 3.2 µg/mL, main component drawn): 0.0435
- fitness (first compound 0.03 µg/mL, partner 6.4 µg/mL, main component drawn): 0.0142
- fitness (first compound 0.06 µg/mL, partner 0.4275 µg/mL, main component drawn): 0.858
- fitness (first compound 0.06 µg/mL, partner 0.855 µg/mL, main component drawn): 0.81
- fitness (first compound 0.06 µg/mL, partner 1.71 µg/mL, main component drawn): 0.0658
- fitness (first compound 0.06 µg/mL, partner 3.2 µg/mL, main component drawn): 0.0566
- fitness (first compound 0.06 µg/mL, partner 6.4 µg/mL, main component drawn): 0.0188
- fitness (first compound 0.12 µg/mL, partner 0.4275 µg/mL, main component drawn): 0.51
- fitness (first compound 0.12 µg/mL, partner 0.855 µg/mL, main component drawn): 0.21
- fitness (first compound 0.12 µg/mL, partner 1.6 µg/mL, main component drawn): 0.174
- fitness (first compound 0.12 µg/mL, partner 1.71 µg/mL, main component drawn): 0.0732
- fitness (first compound 0.12 µg/mL, partner 3.2 µg/mL, main component drawn): 0.0384
- fitness (first compound 0.12 µg/mL, partner 6.4 µg/mL, main component drawn): 0.0513

SMILES: C/C(=C\C(=O)OCCCCCCCCC(=O)O)C[C@@H]1OC[C@H](C[C@@H]2O[C@H]2[C@@H](C)[C@H](C)O)[C@@H](O)[C@H]1O [Pseudomonic acid] + O=C1CN(/N=C/c2ccc([N+](=O)[O-])o2)C(=O)N1 [Nitrofurantoin]
- fitness (first compound 0.03 µg/mL, partner 1.285 µg/mL): 0.916
- fitness (first compound 0.03 µg/mL, partner 2 µg/mL): 0.854
- fitness (first compound 0.03 µg/mL, partner 2.57 µg/mL): 0.942
- fitness (first compound 0.03 µg/mL, partner 4 µg/mL): 0.872
- fitness (first compound 0.03 µg/mL, partner 5.14 µg/mL, one replicate): 0.912
- fitness (first compound 0.03 µg/mL, partner 8 µg/mL): 0.793
- fitness (first compound 0.06 µg/mL, partner 1.285 µg/mL): 0.815
- fitness (first compound 0.06 µg/mL, partner 2 µg/mL): 0.773
- fitness (first compound 0.06 µg/mL, partner 2.57 µg/mL): 0.819
- fitness (first compound 0.06 µg/mL, partner 4 µg/mL): 0.706
- fitness (first compound 0.06 µg/mL, partner 5.14 µg/mL, one replicate): 0.8
- fitness (first compound 0.06 µg/mL, partner 8 µg/mL): 0.718
- fitness (first compound 0.12 µg/mL, partner 1.285 µg/mL): 0.616
- fitness (first compound 0.12 µg/mL, partner 2 µg/mL): 0.563
- fitness (first compound 0.12 µg/mL, partner 2.57 µg/mL): 0.605
- fitness (first compound 0.12 µg/mL, partner 4 µg/mL): 0.59
- fitness (first compound 0.12 µg/mL, partner 5.14 µg/mL, one replicate): 0.556
- fitness (first compound 0.12 µg/mL, partner 8 µg/mL): 0.515
